Here are results for 17 compounds from patent US10696675B2, “Imidazopyridopyrimidine derivative compound and use thereof” (HANMI PHARMACEUTICAL CO., LTD., priority 2016, dated 2020).

In one assay the target is FGFR4 (Homo sapiens, UniProt P22455). The assay can be described thus: Activity inhibition for FGFR4 kinase (Z′-LYTE biochemical assay, Invitrogen SelectScreen). The following applies: ATP concentration based on Km. How it is done:
(§1) For the synthesized compounds, inhibitory activity for FGFR1, 2, 3, 4 kinase was measured. Activity measurement was carried out by requesting to SelectScreen® Biochemical Kinase Profiling Service of Invitrogen. A Z′-LYTE® biochemical assay method was used, and the ATP concentration was set based on the Km value.

The target of the next assay is FGFR1 (Homo sapiens, UniProt P11362). Kind of assay: Activity inhibition for FGFR1 kinase (Z′-LYTE biochemical assay, Invitrogen SelectScreen). As to conditions: ATP concentration based on Km. The procedure: as §1
A further assay has as its system HUH7 cells. The assay can be described thus: Proliferation inhibitory effect for HUH7 cells (SRB assay). The following applies: Homo sapiens, Huh-7, 72 hours, GI50, read-out: IC50 HUH7 Cell Line. It counts as cell-based. The procedure: Test Example 2: Measuring Inhibitory Effect of FGFR Inhibitor Using Cell Line
The test was carried out for identifying a proliferation inhibitory effect of the compound of the present invention for HUH7 cells. HUH7 cell lines were counted and 5.0×10^3 cells were inoculated per well in a 96 well plate. After the innoculation, the cells were cultured for 24 hours in a 37 □ and 5% carbon dioxide (CO2) incubator. On the next day, the synthesized compounds were each diluted and prepared. The diluted compounds were introduced to the cell lines inoculated the previous day by concentrations, and reacted for 72 hours in a 37 □ and 5% carbon dioxide (CO2) incubator. However, to a positive control to which the compound was not added, 0.1% dimethyl sulfoxide (DMSO) diluted with a medium was introduced. To a negative control plate, a trichloroacetic acid (TCA) solution was introduced, and fixed at 4 □. After reacting for 72 hours, the medium including the compound was removed, a TCA solution was added thereto, and the cells were fixed for 30 minutes to 60 minutes at 4 □. The TCA solution was discarded, the plate was washed off with distilled water and then dried in the air. A 0.4% sulforhodamin B (SRB) solution was added to the plate and dyed for 10 minutes at room temperature. The plate was washed off with tap water including a 1% acetic acid solution, and then dried in the air. A 10 mM Trizma base solution was added to dissolve the solid SRB. Using a microplate reader, optical density (O.D. value) was measured at 540 nm. A GI50 value of each of the compounds was calculated using GraphPad Prism V6.0 Software.
(In general: In SRB staining, fixed cells bind dye roughly in proportion to their protein.)

Chain of FGFR4 (P22455 22-802): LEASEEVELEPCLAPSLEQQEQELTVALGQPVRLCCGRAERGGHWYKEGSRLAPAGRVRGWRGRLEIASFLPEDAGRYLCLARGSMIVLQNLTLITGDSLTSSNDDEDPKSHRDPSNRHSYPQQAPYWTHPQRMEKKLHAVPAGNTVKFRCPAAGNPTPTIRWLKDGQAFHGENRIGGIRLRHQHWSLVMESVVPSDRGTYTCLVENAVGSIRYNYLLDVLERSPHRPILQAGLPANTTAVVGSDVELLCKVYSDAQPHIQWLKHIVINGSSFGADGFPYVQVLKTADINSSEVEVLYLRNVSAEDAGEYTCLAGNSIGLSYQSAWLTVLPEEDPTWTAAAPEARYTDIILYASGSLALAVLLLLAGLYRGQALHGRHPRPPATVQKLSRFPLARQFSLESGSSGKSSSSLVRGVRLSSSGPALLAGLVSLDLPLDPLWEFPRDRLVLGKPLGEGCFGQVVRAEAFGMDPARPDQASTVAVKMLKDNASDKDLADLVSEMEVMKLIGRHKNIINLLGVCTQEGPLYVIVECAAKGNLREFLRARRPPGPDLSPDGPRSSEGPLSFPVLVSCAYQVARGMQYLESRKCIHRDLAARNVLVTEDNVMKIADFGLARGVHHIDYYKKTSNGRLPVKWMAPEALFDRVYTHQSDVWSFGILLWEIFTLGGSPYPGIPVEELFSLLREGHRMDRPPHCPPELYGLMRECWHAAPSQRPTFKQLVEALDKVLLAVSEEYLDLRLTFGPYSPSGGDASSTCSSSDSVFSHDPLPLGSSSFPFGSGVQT
Chain of FGFR1 (P11362 22-822): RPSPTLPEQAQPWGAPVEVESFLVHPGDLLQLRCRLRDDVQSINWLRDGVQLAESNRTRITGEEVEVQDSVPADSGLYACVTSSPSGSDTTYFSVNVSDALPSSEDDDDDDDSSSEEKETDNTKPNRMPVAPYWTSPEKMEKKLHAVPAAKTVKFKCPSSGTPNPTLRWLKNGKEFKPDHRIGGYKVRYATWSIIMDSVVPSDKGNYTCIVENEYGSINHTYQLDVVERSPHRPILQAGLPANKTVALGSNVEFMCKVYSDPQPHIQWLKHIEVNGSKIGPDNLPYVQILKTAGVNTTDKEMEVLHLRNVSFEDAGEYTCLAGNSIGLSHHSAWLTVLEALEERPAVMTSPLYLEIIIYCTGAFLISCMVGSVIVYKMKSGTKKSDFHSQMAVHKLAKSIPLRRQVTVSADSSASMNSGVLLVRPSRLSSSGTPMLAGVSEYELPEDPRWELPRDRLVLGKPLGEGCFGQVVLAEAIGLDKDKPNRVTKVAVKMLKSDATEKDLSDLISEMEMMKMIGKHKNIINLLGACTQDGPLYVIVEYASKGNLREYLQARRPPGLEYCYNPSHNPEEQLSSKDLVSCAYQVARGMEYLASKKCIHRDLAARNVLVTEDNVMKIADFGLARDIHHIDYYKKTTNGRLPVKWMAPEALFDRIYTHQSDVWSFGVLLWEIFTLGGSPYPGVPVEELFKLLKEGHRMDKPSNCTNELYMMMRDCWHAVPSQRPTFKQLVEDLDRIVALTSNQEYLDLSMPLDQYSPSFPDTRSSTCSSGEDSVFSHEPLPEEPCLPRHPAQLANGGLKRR

Usually IC50 stands for the midpoint of a concentration-inhibition curve. As to `C=CC(=O)Nc1cc(N2CCOCC2)c(C)cc1Nc1ncc2cc(-c3c(Cl)c(OC)cc(OC)c3Cl)c3nccn3c2n1` [compound 61], the IC50 on FGFR4, on FGFR1 and with HUH7 cells was below 50 nM each time.
For `C=CC(=O)Nc1cc(N2CCN(S(C)(=O)=O)CC2)ccc1Nc1ncc2cc(-c3c(Cl)c(OC)cc(OC)c3Cl)c3nccn3c2n1` [compound 35], the IC50 on FGFR4, against FGFR1 and in the assay on HUH7 cells was below 50 nM each time.
With `C=CC(=O)Nc1cc(N2CC(OC)C2)ccc1Nc1ncc2cc(-c3c(Cl)c(OC)cc(OC)c3Cl)c3nccn3c2n1` [compound 37], the IC50 against FGFR4, against FGFR1 and in the assay with HUH7 cells was below 50 nM throughout.
As for `C=CC(=O)Nc1cc(C)cc(C)c1Nc1ncc2cc(-c3c(Cl)c(OC)cc(OC)c3Cl)c3nccn3c2n1` [compound 58], the IC50 is 50 to 500 nM against FGFR4, above 500 nM against FGFR1 and 50 to 500 nM with HUH7 cells.
Consider `C=CC(=O)Nc1cc(OC2CCCC2)ccc1Nc1ncc2cc(-c3c(Cl)c(OC)cc(OC)c3Cl)c3nccn3c2n1` [compound 54], for which the results for the IC50 on FGFR4, on FGFR1 and in the assay with HUH7 cells were 50 to 500 nM, above 500 nM and 50 to 500 nM, respectively.
`C=CC(=O)Nc1cccc(F)c1Nc1ncc2cc(-c3c(Cl)c(OC)cc(OC)c3Cl)c3nccn3c2n1` [compound 10]: the IC50 against FGFR4 is below 50 nM; against FGFR1 it was 50 to 500 nM; with HUH7 cells, below 50 nM.
For `C=CC(=O)Nc1cc(N2CCOCC2)ccc1Nc1cc2c(cn1)cc(-c1c(Cl)c(OC)cc(OC)c1Cl)c1nccn12` [Synthesis Example 83, N-(2-((4-(2,6-dichloro-3,5-dimethoxyphenyl)imidazo[1,2-a][1,6]naphthyridin-8-yl)amino)-5-morpholinophenyl)acrylamide], the IC50 against FGFR4, at FGFR1 and with HUH7 cells was below 50 nM throughout.
Regarding `C=CC(=O)Nc1cc(N2C[C@@H](C)O[C@@H](C)C2)ccc1Nc1ncc2cc(-c3c(Cl)c(OC)cc(OC)c3Cl)c3nccn3c2n1` [compound 38], the IC50 on FGFR4, at FGFR1 and with HUH7 cells was below 50 nM throughout.
In the case of `C=CC(=O)Nc1cc(N2CCOCC2)cc(C)c1Nc1ncc2cc(-c3c(Cl)c(OC)cc(OC)c3Cl)c3nccn3c2n1` [compound 63], the IC50 was below 50 nM against FGFR4, 50 to 500 nM against FGFR1 and 50 to 500 nM in the assay on HUH7 cells.
In the case of `C=CC(=O)Nc1cc(OCCOC)ccc1Nc1ncc2cc(-c3c(Cl)c(OC)cc(OC)c3Cl)c3nccn3c2n1` [compound 29], the IC50 against FGFR4, on FGFR1 and with HUH7 cells was below 50 nM in each case.
In the case of `C=CC(=O)Nc1cc(N2CCN(CC)CC2)ccc1Nc1cc2c(cn1)cc(-c1c(Cl)c(OC)cc(OC)c1Cl)c1nccn12` [compound 85], the IC50 against FGFR4, against FGFR1 and in the assay with HUH7 cells was below 50 nM throughout.
With `C=CC(=O)Nc1cc(N2CCNCC2)ccc1Nc1ncc2cc(-c3c(Cl)c(OC)cc(OC)c3Cl)c3nccn3c2n1` [compound 39], the IC50 against FGFR4, on FGFR1 and in the assay with HUH7 cells was below 50 nM each time.
Consider `C=CC(=O)Nc1cc(S(C)(=O)=O)ccc1Nc1ncc2cc(-c3c(Cl)c(OC)cc(OC)c3Cl)c3nccn3c2n1` [compound 18], for which the results for the IC50 against FGFR4, on FGFR1 and in the assay with HUH7 cells were below 50 nM, below 50 nM and 50 to 500 nM, respectively.
For the compound `C=CC(=O)Nc1cccc(F)c1Nc1ncc2cc(-c3c(F)c(OC)cc(OC)c3F)c3nccn3c2n1` [Synthesis Example 72, N-(2-((6-(2,6-difluoro-3,5-dimethoxyphenyl)imidazo[1′,2′:1,6]pyrido[2,3-d]pyrimidin-2-yl)amino)-3-fluorophenyl)acrylamide], the IC50 at FGFR4 was below 50 nM; at FGFR1, above 500 nM; in the assay with HUH7 cells it was below 50 nM.
With `C=CC(=O)Nc1cccc(C)c1Nc1ncc2cc(-c3c(Cl)c(OC)cc(OC)c3Cl)c3nccn3c2n1` [compound 9], the IC50 at FGFR4 was below 50 nM; against FGFR1, above 500 nM; in the assay on HUH7 cells, 50 to 500 nM.
Consider `C=CC(=O)Nc1cc(N(C)CCOC)ccc1Nc1ncc2cc(-c3c(Cl)c(OC)cc(OC)c3Cl)c3nccn3c2n1` [compound 25], for which the IC50 on FGFR4, against FGFR1 and in the assay on HUH7 cells was below 50 nM each time.
Turning to `C=CC(=O)Nc1cccc(OC)c1Nc1ncc2cc(-c3c(Cl)c(OC)cc(OC)c3Cl)c3nccn3c2n1` [compound 11], the concentration for half-maximal inhibition (IC50) was below 50 nM on FGFR4, 50 to 500 nM against FGFR1 and 50 to 500 nM in the assay on HUH7 cells.
